Positions of bridges follow the written chain, without caps; N, C: chain ends. Non-standard residues stand in square brackets, D forms with d. Residues, ends and D or L forms follow the SMILES beside them. *: point of attachment. FITC = O=C1OC2(c3ccc(O)cc3Oc3cc(O)ccc32)c2ccc(NC(=S)*)cc21; S5 = C=CCCC[C@](C)(N)C(=O)O; AEEA = NCCOCCOCC(=O)O

Data set [1] can be described thus: CD spectroscopy, secondary structure content. Conditions: fluorescein-labeled peptide 75 μM, 10 mM sodium phosphate pH 7.4, CDNN/PEPFIT; for Helix (α-helicity): unbound. The data set is classed as physicochemical. How it is done:
Spectra of fluorescein-labeled peptides were recorded with a J-715 circular dichroism spectrometer (Jasco) using a stoppered quartz cuvette (1 mm; Hellma). Peptide samples (c = 75 μM) were prepared in buffer: 10 mM disodium hydrogen phosphate, pH 7.4. For each sample, 10 CD spectra were measured between λ = 190 and 260 nm with continuous scan mode (10 mdeg sensitivity, 1.0 nm resolution, 1.0 nm bandwidth, 2 s integration time, 50 nm/min scan rate). Obtained spectra were averaged, then subtracted from a reference buffer spectrum and smoothed using a fast Fourier transform filter (FFT filter). The mean residue ellipticity (Θ) (deg·cm^2·dmol^−1·10^4) was calculated using Formula (2) and plotted against wavelength (λ) (nm). The ratio of secondary structure elements was calculated with CDNN using the PEPFIT set of reference spectra for secondary structure determination ([45],[46]):(2) where [Θ]m = mean molar ellipticity per peptide bond (degree·cm^2·dmol^−1·10^4), Θ = measured ellipticity (degree), d = optical path length (cm), cg = mass concentration (g·l^−1), MRW = mean residue weight, M = molar mass of the peptide (g·mol^−1) and N = number of peptide bonds.

For data set [2], the target named is proteinase K (Parengyodontium album, UniProt P06873). Nature of the data set: Protease stability assay. The data set is classed as in vitro ADME. The settings on record: proteinase K 10 μg·ml^−1, fluorescein-labeled peptide 50 μM, 10 mM Tris pH 8.0, 150 mM NaCl, room temperature, HPLC absorbance 210 nm, exponential decay fit. The method, then:
Protease stability assays were performed in analogy to a previously published protocol ([47]). Stocks of fluorescein-labeled peptides were prepared to a concentration of 55.5 μM in assay buffer (10 mM Tris, pH 8.0, 150 mM NaCl) and separately stocks of proteinase K also in assay buffer (c = 100 μg·ml^−1). To begin each experiment, peptide and proteinase K stocks were mixed (final concentrations: c = 10 μg·ml^−1 proteinase K, c = 50 μM fluorescein-labeled peptide; final volume = 500 μl) and incubated at room temperature. At each time point, 50 μl of the reaction mixture was quenched by adding 100 μl of TFA/ACN/H2O (v/v/v, 1:49:49) and subsequently incubated for 2 min on ice. Following centrifugation (15 min, 13200 rpm, 4°C), samples (45 μl) were monitored by analytical HPLC using a linear gradient of 10–60% HPLC solvent B over 20 min. The amount of remaining peptide was quantified via absorbance at λ = 210 nm (intact peptide (%)) and plotted against time (t) (h). Half-life (t1/2) was calculated by fitting the data to an exponential decay using the software Prism 5.0 (GraphPad).

proteinase K, sequence (P06873 106-384): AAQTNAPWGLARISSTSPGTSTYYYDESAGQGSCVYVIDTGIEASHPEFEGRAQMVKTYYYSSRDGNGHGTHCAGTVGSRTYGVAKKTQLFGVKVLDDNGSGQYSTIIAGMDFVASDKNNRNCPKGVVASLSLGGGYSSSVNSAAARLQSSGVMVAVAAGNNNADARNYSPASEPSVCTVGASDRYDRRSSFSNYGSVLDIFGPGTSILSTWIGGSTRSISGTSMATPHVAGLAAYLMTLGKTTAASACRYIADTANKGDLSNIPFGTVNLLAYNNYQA

Take `CC(C)C[C@H](NC(=O)[C@H](CCCCN)NC(=O)[C@H](Cc1c[nH]cn1)NC(=O)[C@H](CCCNC(=N)N)NC(=O)[C@H](CCCCN)NC(=O)[C@H](CCCNC(=N)N)NC(=O)[C@H](CCC(N)=O)NC(=O)[C@H](C)NC(=O)[C@H](CCC(N)=O)NC(=O)[C@H](CCCCN)NC(=O)[C@H](CCCCN)NC(=O)COCCOCCNC(=S)Nc1ccc2c(c1)C(=O)OC21c2ccc(O)cc2Oc2cc(O)ccc21)C(=O)N[C@@H](CC(N)=O)C(=O)N[C@@H](CCCNC(=N)N)C(=O)N[C@@H](CCCCN)C(=O)N[C@@H](CCC(=O)O)C(=O)N[C@@H](CCCNC(=N)N)C(=O)NCC(=O)N[C@@H](Cc1c[nH]cn1)C(=O)N[C@@H](CCCCN)C(=O)N[C@@H](CO)C(=O)N1CCC[C@H]1C(=O)N[C@@H](CO)C(=O)N[C@@H](CCC(=O)O)C(=O)N[C@@H](CCC(N)=O)C(=O)N[C@@H](CCCNC(=N)N)C(=O)N[C@@H](CCCNC(=N)N)C(=O)N[C@@H](CO)C(=O)N[C@@]1(C)CCCC=CCCC[C@@](C)(C(=O)N[C@@H](CCCNC(=N)N)C(N)=O)NC(=O)[C@H](Cc2c[nH]cn2)NC(=O)[C@H](Cc2c[nH]c3ccccc23)NC(=O)[C@H](CC(C)C)NC1=O` [C] ({FITC-AEEA}-KKQAQRKRHKLNRKERGHKSPSEQRRS[S5]LWH[S5]R-NH2; staple 28-32): in data set [1], the Random coil was determined as 63.6%, the β-Sheet turned out to be 2.8%, the β-Turn is recorded as 7.6% and the “Helix (α-helicity)” value is recorded as 28.4%. In data set [2], the “Half-life (t1/2)” value amounted to 77.7 min.

Turning to `CC(C)C[C@@H]1NC(=O)[C@@](C)(NC(=O)[C@H](CO)NC(=O)[C@H](CCCNC(=N)N)NC(=O)[C@H](CCCNC(=N)N)NC(=O)[C@H](CCC(N)=O)NC(=O)[C@H](CCC(=O)O)NC(=O)[C@H](CO)NC(=O)[C@@H]2CCCN2C(=O)[C@H](CO)NC(=O)[C@H](CCCCN)NC(=O)[C@H](Cc2c[nH]cn2)NC(=O)CNC(=O)[C@H](CCCNC(=N)N)NC(=O)[C@]2(C)CCCC=CCCC[C@](C)(NC(=O)[C@H](CCCCN)NC(=O)[C@H](Cc3c[nH]cn3)NC(=O)[C@H](CCCNC(=N)N)NC(=O)[C@H](CCCCN)NC(=O)[C@H](CCCNC(=N)N)NC(=O)[C@H](CCC(N)=O)NC(=O)[C@H](C)NC(=O)[C@H](CCC(N)=O)NC(=O)[C@H](CCCCN)NC(=O)[C@H](CCCCN)NC(=O)COCCOCCNC(=S)Nc3ccc4c(c3)C(=O)OC43c4ccc(O)cc4Oc4cc(O)ccc43)C(=O)N[C@@H](CC(N)=O)C(=O)N[C@@H](CCCNC(=N)N)C(=O)N[C@@H](CCCCN)C(=O)N2)CCCC=CCCC[C@@](C)(C(=O)N[C@@H](CCCNC(=N)N)C(N)=O)NC(=O)[C@H](Cc2c[nH]cn2)NC(=O)[C@H](Cc2c[nH]c3ccccc23)NC1=O` [C3] ({FITC-AEEA}-KKQAQRKRHK[S5]NRK[S5]RGHKSPSEQRRS[S5]LWH[S5]R-NH2; staple 11-15, 28-32), in data set [1], the Random coil came to 37.0%, the β-Sheet was determined as 4.3%, the β-Turn was determined as 6.2% and the “Helix (α-helicity)” value was 59.3%. For the same compound, the “Half-life (t1/2)” value in data set [2] turned out to be 303 min.

Regarding `CC(C)C[C@H](NC(=O)[C@]1(C)CCCC=CCCC[C@](C)(NC(=O)[C@H](CCC(=O)O)NC(=O)[C@H](CO)NC(=O)[C@@H]2CCCN2C(=O)[C@H](CO)NC(=O)[C@H](CCCCN)NC(=O)[C@H](Cc2c[nH]cn2)NC(=O)CNC(=O)[C@H](CCCNC(=N)N)NC(=O)[C@H](CCC(=O)O)NC(=O)[C@H](CCCCN)NC(=O)[C@H](CCCNC(=N)N)NC(=O)[C@H](CC(N)=O)NC(=O)[C@]2(C)CCCC=CCCC[C@](C)(NC(=O)[C@H](CCCNC(=N)N)NC(=O)[C@H](CCC(N)=O)NC(=O)[C@H](C)NC(=O)[C@H](CCC(N)=O)NC(=O)[C@H](CCCCN)NC(=O)[C@H](CCCCN)NC(=O)COCCOCCNC(=S)Nc3ccc4c(c3)C(=O)OC43c4ccc(O)cc4Oc4cc(O)ccc43)C(=O)N[C@@H](CCCNC(=N)N)C(=O)N[C@@H](Cc3c[nH]cn3)C(=O)N[C@@H](CCCCN)C(=O)N2)C(=O)N[C@@H](CCCNC(=N)N)C(=O)N[C@@H](CCCNC(=N)N)C(=O)N[C@@H](CO)C(=O)N1)C(=O)N[C@@H](Cc1c[nH]c2ccccc12)C(=O)N[C@@H](Cc1c[nH]cn1)C(=O)N[C@@H](C)C(=O)N[C@@H](CCCNC(=N)N)C(N)=O` [B2] ({FITC-AEEA}-KKQAQR[S5]RHK[S5]NRKERGHKSPSE[S5]RRS[S5]LWHAR-NH2; staple 7-11, 24-28), in data set [1], the Random coil is on record as 12.5%, the β-Sheet was 2.4%, the β-Turn is reported as 10.3% and the “Helix (α-helicity)” value stood at 82.2%. In data set [2], the “Half-life (t1/2)” value is on record as 536 min.

Turning to `CC(C)C[C@@H]1NC(=O)[C@@](C)(NC(=O)[C@H](CO)NC(=O)[C@H](CCCNC(=N)N)NC(=O)[C@H](CCCNC(=N)N)NC(=O)[C@H](CCC(N)=O)NC(=O)[C@H](CCC(=O)O)NC(=O)[C@H](CO)NC(=O)[C@@H]2CCCN2C(=O)[C@H](CO)NC(=O)[C@H](CCCCN)NC(=O)[C@H](Cc2c[nH]cn2)NC(=O)CNC(=O)[C@H](CCCNC(=N)N)NC(=O)[C@H](CCC(=O)O)NC(=O)[C@H](CCCCN)NC(=O)[C@H](CCCNC(=N)N)NC(=O)[C@H](CC(N)=O)NC(=O)[C@]2(C)CCCC=CCCC[C@](C)(NC(=O)[C@H](CCCNC(=N)N)NC(=O)[C@H](CCC(N)=O)NC(=O)[C@H](C)NC(=O)[C@H](CCC(N)=O)NC(=O)[C@H](CCCCN)NC(=O)[C@H](CCCCN)NC(=O)COCCOCCNC(=S)Nc3ccc4c(c3)C(=O)OC43c4ccc(O)cc4Oc4cc(O)ccc43)C(=O)N[C@@H](CCCNC(=N)N)C(=O)N[C@@H](Cc3c[nH]cn3)C(=O)N[C@@H](CCCCN)C(=O)N2)CCCC=CCCC[C@@](C)(C(=O)N[C@@H](CCCNC(=N)N)C(N)=O)NC(=O)[C@H](Cc2c[nH]cn2)NC(=O)[C@H](Cc2c[nH]c3ccccc23)NC1=O` [C2] ({FITC-AEEA}-KKQAQR[S5]RHK[S5]NRKERGHKSPSEQRRS[S5]LWH[S5]R-NH2; staple 7-11, 28-32), in data set [1], the Random coil turned out to be 41.6%, the β-Sheet is reported as 3.3%, the β-Turn came out at 4.2% and the “Helix (α-helicity)” value is 61.8%. The “Half-life (t1/2)” value in data set [2] is 440 min.

With `CC(C)C[C@H](NC(=O)[C@H](CCCCN)NC(=O)[C@H](Cc1c[nH]cn1)NC(=O)[C@H](CCCNC(=N)N)NC(=O)[C@H](CCCCN)NC(=O)[C@H](CCCNC(=N)N)NC(=O)[C@H](CCC(N)=O)NC(=O)[C@H](C)NC(=O)[C@H](CCC(N)=O)NC(=O)[C@H](CCCCN)NC(=O)[C@H](CCCCN)NC(=O)COCCOCCNC(=S)Nc1ccc2c(c1)C(=O)OC21c2ccc(O)cc2Oc2cc(O)ccc21)C(=O)N[C@@H](CC(N)=O)C(=O)N[C@@H](CCCNC(=N)N)C(=O)N[C@@H](CCCCN)C(=O)N[C@@H](CCC(=O)O)C(=O)N[C@@H](CCCNC(=N)N)C(=O)NCC(=O)N[C@@H](Cc1c[nH]cn1)C(=O)N[C@@H](CCCCN)C(=O)N[C@@H](CO)C(=O)N1CCC[C@H]1C(=O)N[C@@H](CO)C(=O)N[C@@H](CCC(=O)O)C(=O)N[C@@]1(C)CCCC=CCCC[C@@](C)(C(=O)N[C@@H](CC(C)C)C(=O)N[C@@H](Cc2c[nH]c3ccccc23)C(=O)N[C@@H](Cc2c[nH]cn2)C(=O)N[C@@H](C)C(=O)N[C@@H](CCCNC(=N)N)C(N)=O)NC(=O)[C@H](CO)NC(=O)[C@H](CCCNC(=N)N)NC(=O)[C@H](CCCNC(=N)N)NC1=O` [B] ({FITC-AEEA}-KKQAQRKRHKLNRKERGHKSPSE[S5]RRS[S5]LWHAR-NH2; staple 24-28), in data set [1], the Random coil is recorded as 46.0%, the β-Sheet is 6.8%, the β-Turn is given as 13.9% and the “Helix (α-helicity)” value worked out at 30.5%. Besides, the “Half-life (t1/2)” value in data set [2] is recorded as 64.9 min.

Values taken from paper PMC8682738, “Constrained peptides mimic a viral suppressor of RNA silencing” (Nucleic Acids Research, 2021).
